Source: ChEMBL document CHEMBL1201862, “PubChem BioAssay data set” (2004)
Calls of active or inactive are those of the source.

What was measured:
Estrogen receptor beta [1] = target: T1, Estrogen receptor beta (Homo sapiens, UniProt Q92731);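 further: recombinant ER-beta bound to coactivator SRC1 peptide in presence of estradiol agonist; inhibitors block coactivator peptide binding and lower the FRET signal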
[2] = target: T2, RNA-binding protein pos-1 (Caenorhabditis elegans, UniProt G5EF15); test: inhibitors of POS-1/mex-3 RNA binding, dose response, biochemical, fluorescence polarization (AID 1964);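 further: purified POS-1 fused to maltose binding protein made in E. coli; potency of compounds blocking POS-1 binding to fluorescent RNA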
T2 sequence (G5EF15 whole entry): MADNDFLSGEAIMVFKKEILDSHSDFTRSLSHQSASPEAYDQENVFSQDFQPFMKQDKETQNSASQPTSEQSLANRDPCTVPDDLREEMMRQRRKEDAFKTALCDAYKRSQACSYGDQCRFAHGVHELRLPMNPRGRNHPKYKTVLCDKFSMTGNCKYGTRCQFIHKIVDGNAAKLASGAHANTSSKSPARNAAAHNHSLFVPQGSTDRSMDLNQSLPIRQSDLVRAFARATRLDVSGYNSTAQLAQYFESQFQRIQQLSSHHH

[3] = target: T3, Zinc finger protein mex-5 (Caenorhabditis elegans, UniProt Q9XUB2); test: MEX-5/TCR-2 RNA interaction inhibitors, dose response, biochemical, C. elegans, fluorescence polarization (AID 1960)
T3 sequence (Q9XUB2 whole entry): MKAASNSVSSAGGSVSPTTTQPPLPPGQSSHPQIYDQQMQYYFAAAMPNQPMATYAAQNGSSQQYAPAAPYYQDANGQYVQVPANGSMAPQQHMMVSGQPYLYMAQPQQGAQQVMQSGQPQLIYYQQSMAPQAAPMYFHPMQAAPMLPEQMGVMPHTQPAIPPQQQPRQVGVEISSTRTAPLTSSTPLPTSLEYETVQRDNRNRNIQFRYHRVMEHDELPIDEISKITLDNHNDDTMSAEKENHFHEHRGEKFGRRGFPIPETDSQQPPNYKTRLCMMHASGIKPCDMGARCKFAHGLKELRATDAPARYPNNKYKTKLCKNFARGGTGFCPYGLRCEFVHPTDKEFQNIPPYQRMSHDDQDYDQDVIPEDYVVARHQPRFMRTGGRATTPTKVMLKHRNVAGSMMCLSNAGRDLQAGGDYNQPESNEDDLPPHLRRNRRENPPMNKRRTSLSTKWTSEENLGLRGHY

[4] = inhibitors of SNCA 5'UTR-driven reporter translation, confirmation, H4 neuroglioma cells, luminescence (AID 1988); format: functional, cell-based
[5] = Luminescence Cell-Based Dose Response HTS to Identify Inhibitors of 5'UTR Stem-Loop Driven Prion Protein mRNA Translation in H4 Neuroglioblastoma Cells. [Related pubchem assays: 1827 (Project Summary), 1813 (Primary HTS)]; format: functional
[6] = inhibitors of firefly luciferase expression or activity, dose response, H4 neuroglioma cells, luminescence (AID 1990); format: functional, cell-based
[7] = HEp-2 cell cytotoxicity, dose response, cytotoxicity control for RSV inhibitor project, HTS (AID 2410); format: functional; settings: human respiratory syncytial virus
[8] = target: Induced myeloid leukemia cell differentiation protein Mcl-1 (Homo sapiens, UniProt Q07820); format: functional
Chain of Induced myeloid leukemia cell differentiation protein Mcl-1 (Q07820 whole entry): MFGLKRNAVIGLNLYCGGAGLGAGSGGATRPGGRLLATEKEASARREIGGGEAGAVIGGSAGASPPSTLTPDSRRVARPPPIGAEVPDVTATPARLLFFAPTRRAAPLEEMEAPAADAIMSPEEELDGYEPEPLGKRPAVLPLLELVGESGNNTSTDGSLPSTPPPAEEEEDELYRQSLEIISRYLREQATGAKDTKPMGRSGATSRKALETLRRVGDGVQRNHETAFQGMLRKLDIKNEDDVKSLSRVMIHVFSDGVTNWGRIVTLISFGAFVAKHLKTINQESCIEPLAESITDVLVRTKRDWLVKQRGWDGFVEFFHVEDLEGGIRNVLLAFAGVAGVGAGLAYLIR

Estrogen receptor beta [9] = target: T1, Estrogen receptor beta; test: ERβ–SRC-3 coactivator interaction inhibitors, confirmation, orthogonal assay, biochemical, ELISA, streptavidin-HRP readout (AID 1060)
[10] = target: 5-hydroxytryptamine receptor 1A (Homo sapiens, UniProt P08908); format: functional
Chain of 5-hydroxytryptamine receptor 1A (P08908 whole entry): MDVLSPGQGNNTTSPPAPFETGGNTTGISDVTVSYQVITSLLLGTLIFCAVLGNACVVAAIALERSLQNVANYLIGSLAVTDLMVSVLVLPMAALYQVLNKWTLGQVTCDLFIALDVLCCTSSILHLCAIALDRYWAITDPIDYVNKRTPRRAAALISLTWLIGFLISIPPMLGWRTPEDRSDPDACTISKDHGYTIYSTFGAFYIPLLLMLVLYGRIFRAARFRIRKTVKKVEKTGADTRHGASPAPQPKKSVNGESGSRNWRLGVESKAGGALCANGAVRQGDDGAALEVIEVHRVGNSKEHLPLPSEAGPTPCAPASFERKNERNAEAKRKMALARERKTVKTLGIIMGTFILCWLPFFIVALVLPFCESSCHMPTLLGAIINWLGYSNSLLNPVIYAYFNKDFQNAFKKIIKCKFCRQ

[11] = enhancers of respiration in Yfh1-depleted yeast, dose response, Friedreich's ataxia, plus single-dose screen (AID 1465); format: functional;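 further: yeast depleted of Yfh1p frataxin homolog grown on glycerol needing respiration; WST-1 tetrazolium dye reduction as measure of cellular dehydrogenase metabolic activity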
[12] = Vero cell cytotoxicity, dose response, cytotoxicity control for Vif-APOBEC3G degradation inhibitor project, Vero cells (AID 1117358); format: functional; settings: Human immunodeficiency virus 1, Vero
Prothrombin = Prothrombin (Homo sapiens, UniProt P00734); test: Thrombin 1536 HTS Dose Response Confirmation. [Related pubchem assays: 1046 (Thrombin 1536 HTS; hits were confirmed in this assay)]; format: functional
[13] = M. tuberculosis H37Rv growth inhibitors, H37Rv strain (AID 1626); format: functional
Estrogen receptor = target: T4, Estrogen receptor (Homo sapiens, UniProt P03372); test: potentiators of ERα–SRC-1 coactivator binding, dose response, biochemical, TR-FRET, ERα LBD (AID 737)
T4 sequence (P03372 whole entry): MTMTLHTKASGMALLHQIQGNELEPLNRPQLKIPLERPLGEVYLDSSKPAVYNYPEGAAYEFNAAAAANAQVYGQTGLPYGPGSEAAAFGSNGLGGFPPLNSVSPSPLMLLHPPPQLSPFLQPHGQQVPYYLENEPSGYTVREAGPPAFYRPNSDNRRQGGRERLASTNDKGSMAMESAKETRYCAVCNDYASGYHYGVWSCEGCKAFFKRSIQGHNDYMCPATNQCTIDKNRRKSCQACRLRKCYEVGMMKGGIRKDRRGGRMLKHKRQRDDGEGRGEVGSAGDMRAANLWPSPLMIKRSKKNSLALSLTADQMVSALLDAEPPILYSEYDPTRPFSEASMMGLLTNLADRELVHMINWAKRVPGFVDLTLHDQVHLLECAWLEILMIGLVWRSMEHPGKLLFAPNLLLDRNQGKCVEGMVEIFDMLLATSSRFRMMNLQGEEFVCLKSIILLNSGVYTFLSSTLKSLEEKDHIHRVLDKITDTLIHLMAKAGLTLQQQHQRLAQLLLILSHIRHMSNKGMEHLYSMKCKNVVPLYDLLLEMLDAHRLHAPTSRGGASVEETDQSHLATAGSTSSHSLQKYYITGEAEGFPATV

T1 sequence (Q92731 whole entry, the tested form may be a part): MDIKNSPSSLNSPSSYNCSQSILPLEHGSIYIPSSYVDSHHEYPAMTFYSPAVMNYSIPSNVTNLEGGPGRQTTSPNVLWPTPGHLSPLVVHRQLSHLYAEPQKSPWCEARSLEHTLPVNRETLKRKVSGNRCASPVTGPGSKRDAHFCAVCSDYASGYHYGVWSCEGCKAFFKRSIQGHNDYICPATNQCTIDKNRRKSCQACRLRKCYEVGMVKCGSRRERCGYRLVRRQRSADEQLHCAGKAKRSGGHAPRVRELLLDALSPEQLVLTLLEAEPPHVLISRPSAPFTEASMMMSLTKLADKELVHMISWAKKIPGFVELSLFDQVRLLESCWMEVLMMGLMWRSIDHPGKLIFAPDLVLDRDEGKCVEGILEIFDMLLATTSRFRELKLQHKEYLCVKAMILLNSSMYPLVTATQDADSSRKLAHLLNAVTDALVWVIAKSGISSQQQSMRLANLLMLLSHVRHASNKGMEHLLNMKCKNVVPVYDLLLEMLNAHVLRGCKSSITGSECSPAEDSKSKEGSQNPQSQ

In the case of `ON=C1/C(=N\O)CC2(C/C1=N/O)OCCO2`, the IC50 (Estrogen receptor beta [1]) was 14.1 µM (active), the EC50 [2] was > 300 µM (not active) and the EC50 [3] was 13 µM (active).
For `O=C(c1cc2nc(-c3ccccc3)cc(-c3ccccc3)n2n1)N1CCC2(CC1)OCCO2`, the EC50 [4] was 115 µM (active), the EC50 [5] was 12.9 µM (active) and the EC50 [6] was 24.2 µM (active). For the same compound, the IC50 (cells) was 3.6 µM (active) and the CC50 [7] was 28.9 µM (active).
With `CC(C)Cn1c(N)c(C(=O)COC(=O)c2cc(-c3ccco3)nc3ccccc23)c(=O)n(C)c1=O` the IC50 [8] was 2.59 µM (active) and the IC50 (Estrogen receptor beta [9]) was > 50 µM (not active).
With `NCCc1c[nH]c2ccc(F)cc12` the EC50 [10] was 2.22 µM (active).
With `CC(C(=O)O)N1C(=O)/C(=C/c2cccn2C)SC1=S` (centres undefined) the EC50 [11] was > 100 µM (active).
With `COc1cc(C(=O)NCC(c2ccco2)N2CCCC2)ccc1OCc1c(C)noc1C` (centres undefined) the CC50 [12] was > 40 µM (active).
For `COC(=O)C1=C(C)N(Cc2ccccc2)C(=O)N[C@H]1c1ccccc1`, the IC50 (cells) was 5.02 µM (active) and the CC50 [7] was 33.9 µM (active).
For `C/C(=C\c1ccccc1)C(=O)n1nnc2ccccc21`, the IC50 (Prothrombin) was 0.846 µM (active).
With `Cc1cccc(Oc2ccc(N)cc2)c1` the IC50 [13] was > 100 µM (active).
For `O=C(Cc1ccccc1)Nc1ccc2oc(-c3cccnc3)nc2c1`, the EC50 (Estrogen receptor) was 21.2 µM (active).
In the case of `COc1ccc(-c2cn3c(C)c(C(=O)Nc4ccncc4)sc3n2)cc1`, the EC50 (Estrogen receptor) was 18.9 µM (active).
